Laboratory results reported in patent US11325921B2, “Optically active crosslinked cyclic secondary amine derivative” (Sumitomo Dainippon Pharma Co., Ltd., priority 2018, dated 2022).

How the values were obtained:
[1] = system: MEIS1 mRNA in MV4; 11 cells; assay: Test 3: inhibition of mRNA transcription, MEIS1; format: cell-based; details: for mrna remaining at 1 µM: Homo sapiens, MV4, 20 to 24 hours, fitted with GAPDH, read-out: mRNA at 1 μM (% control) MEIS1; for mRNA transcription inhibition activity (in words): MEIS1 and HOXA9, MV4, 1 μM, summary of the table
Description: (§1) MV4; 11 cells were obtained from American Type Culture Collection (ATCC). The cells were cultured at 37° C. in the presence of 5% CO2 in RPMI 1640 medium containing 10% fetal bovine serum and 1% penicillin/streptomycin. To the MV4; 11 cells was added each test compound to adjust the final concentration to 1 μmol/L, and the cells were cultured at 37° C. in the presence of 5% CO2 for 20 to 24 hours. After the incubation, the total RNA was extracted from the cells with RNeasy™ Mini Kit (QIAGEN, 74106), and cDNA was synthesized with Superscript™ VILO™ cDNA Synthesis Kit (Invitrogen, #11754250). By using TaqMan™ Gene Expression Master Mix (Applied Biosystems, 4369016) and TaqMan™ probe (Applied Biosystems), the expression level of mRNA was quantified from the obtained cDNA with 7900HT (Applied biosystems). The mRNA expression level of each obtained gene was fitted with the expression level of mRNA of GAPDH.

MOLM-13 cells = assay: Test 2: inhibition of cell proliferation, MOLM-13; format: cell-based; details: Homo sapiens, 168 h, cultured 7 days, PrestoBlue
Description: (§2) RS4; 11 cells were obtained from American Type Culture Collection (ATCC). The cells were cultured at 37° C. in the presence of 5% CO2 in RPMI 1640 medium containing 10% fetal bovine serum and 1% penicillin/streptomycin. MOLM-13 cells were separately obtained from DSMZ. The cells were cultured at 37° C. in the presence of 5% CO2 in RPMI 1640 medium containing 20% fetal bovine serum and 1% penicillin/streptomycin.
(§3) The cells were plated to a 96-well plate in 2000 cells/well, each test compound was added thereto to adjust the final concentration of DMSO to 0.1% of DMSO, and the cells were cultured for 7 days. After the cultivation, the cell viability was calculated with PrestoBlue™ Cell Viability Reagent (Invitrogen, A13261). The IC50 value was calculated from a survival curve, that corresponds to the concentration of the test compound at which the cell proliferation inhibition rate is 50%.

[2] = target: Menin-MLL binding (His-Menin1-615 / MLL1-172-FLAG) (Homo sapiens (Human), UniProt O00255); assay: Test 1: inhibition of the Menin-MLL binding (HTRF); details: for Menin-MLL binding inhibition activity (in words): summary of the table
Chain of Menin-MLL binding (His-Menin1-615 / MLL1-172-FLAG) (O00255 other isoform, or with tags, fused parts or gaps): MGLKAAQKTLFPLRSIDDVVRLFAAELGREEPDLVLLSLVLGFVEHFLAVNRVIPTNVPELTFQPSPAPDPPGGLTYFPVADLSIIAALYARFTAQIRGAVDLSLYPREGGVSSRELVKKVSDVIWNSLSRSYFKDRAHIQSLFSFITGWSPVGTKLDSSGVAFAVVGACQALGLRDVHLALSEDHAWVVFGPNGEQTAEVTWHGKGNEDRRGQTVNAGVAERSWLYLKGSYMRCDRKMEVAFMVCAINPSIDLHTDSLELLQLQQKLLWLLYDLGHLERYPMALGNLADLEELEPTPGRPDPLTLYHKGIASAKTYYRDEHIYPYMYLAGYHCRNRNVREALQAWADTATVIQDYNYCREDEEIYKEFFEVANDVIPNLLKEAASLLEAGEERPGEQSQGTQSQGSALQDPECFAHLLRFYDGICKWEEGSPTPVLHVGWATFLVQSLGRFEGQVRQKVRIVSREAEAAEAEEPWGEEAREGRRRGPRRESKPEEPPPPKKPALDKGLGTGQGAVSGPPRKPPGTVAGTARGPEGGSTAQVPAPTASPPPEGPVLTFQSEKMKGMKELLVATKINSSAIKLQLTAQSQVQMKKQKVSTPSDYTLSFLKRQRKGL
Description: Menin1-615 wherein 6× His tag and HA tag are inserted in the N-terminus, and myc tag is inserted in the C-terminus (hereinafter, referred to as His-Menin1-615), was diluted with an assay buffer (25 mmol/L HEPES, 150 mmol/L NaCl, 1 mmol/L dithiothreitol, 0.5% (w/v) Tween 80, 0.3% (w/v) BSA, 0.3% (w/v) skim milk) to adjust the final concentration Lo 30 nmol/L. The test compounds were also diluted with the assay buffer to adjust each concentration of the test compounds to 0.005 to 5 μmol/L. The prepared His-Menin1-615 and test compounds were added to a light-shielding 384-well low-volume plate (Corning, #4514) in 2 μL/well and 6 μL/well, respectively, and the plate was covered with a lid for light-shielding (Corning, r-3935), and incubated at room temperature for 3 hours. After the incubation, MLL1-172 wherein FLAG tag is inserted in the C-terminus (MLL1-172-FLAG), was separately diluted with the assay buffer to adjust the final concentration to 50 nmol/L. The prepared MLL1-172-FLAG was added to the above plate in 2 μL/well, and the plate was covered with a lid for light-shielding and incubated at room temperature for an hour.
Then, anti-6HIS-d2 antibody (cisbio, 61HISDLA) and anti-FLAGM2-K antibody (cisbio, 61FG2KLA) were diluted with an antibody dilution buffer (50 mmol/L Tris, 150 mmol/L NaCl, 800 mmol/L KF, pH 7.4) to adjust the final concentration to 1.4 μg/mL to prepare an antibody mixture. The prepared antibody mixture was added to the above plate in 10 μL/well, and the plate was covered with a lid and incubated at 4° C. for 17 to 24 hours. After the incubation, the signal was detected with RUBYstar (BMG LABTECH). The binding inhibition rate (%) at each concentration of the test compounds was calculated from the following formula, and the IC50 value was obtained, that corresponds to the concentration of the test compound at which the binding inhibition rate is 50%.

RS4; 11 cells = assay: Test 2: inhibition of cell proliferation, RS4; 11; format: cell-based; details: for IC50: Homo sapiens, 168 h, 11 cells, cultured 7 days, PrestoBlue; for cell proliferation inhibition activity (in words, good) / cell proliferation inhibitory activity (in words, potent): 11 and MOLM-13 cells, summary of the table; for cell proliferation inhibitory activity (in words, potent): 'especially'
Description: as §2, §3

[3] = system: HOXA9 mRNA in MV4; 11 cells; assay: Test 3: inhibition of mRNA transcription, HOXA9; format: cell-based; details: Homo sapiens, 20 to 24 hours, fitted with GAPDH, read-out: mRNA at 1 μM (% control) HOXA9
Description: as §1

Structure (SMILES) | IC50 (MOLM-13 cells) | IC50 [2] | IC50 (RS4; 11 cells) | Menin-MLL binding inhibition activity (in words) [2] | mrna remaining at 1 µM [1] | mrna remaining at 1 µM [3] | mRNA transcription inhibition activity (in words) [1] | cell proliferation inhibition activity (in words, good) (RS4; 11 cells) | cell proliferation inhibitory activity (in words, potent) (RS4; 11 cells)
O=C([C@H]1N[C@H]2CC[C@@H]1C(F)(F)C2)N1CC2(C1)CN(c1c(C(F)(F)F)cnc3sc(CC(F)(F)F)cc13)C2 [Example 4, [(1S,3S,4S)-5,5-difluoro-2-azabicyclo[2.2.2]octan-3-yl]{6-[2-(2,2,2-trifluoroethyl)-5-(trifluoromethyl)thieno[2,3-b]pyridin-4-yl]-2,6-diazaspiro[3.3]heptan-2-yl}methanone] | 1700 nM | 140 nM | 780 nM | – | 65.4% | 60% | – | – | –
O=C([C@H]1N[C@H]2CC[C@@H]1C[C@@H]2O)N1CC2(C1)CN(c1c(C(F)(F)F)cnc3sc(CC(F)(F)F)cc13)C2 [Example 6, [(1S,3S,4R,6S)-6-hydroxy-2-azabicyclo[2.2.2]octan-3-yl]{6-[2-(2,2,2-trifluoroethyl)-5-(trifluoromethyl)thieno[2,3-b]pyridin-4-yl]-2,6-diazaspiro[3.3]heptan-2-yl}methanone] | 830 nM | 27.3 nM | 580 nM | – | 51.3% | 54.3% | – | – | –
O=C1C[C@@H]2CC[C@H]1[C@@H](C(=O)N1CC3(C1)CN(c1c(C(F)(F)F)cnc4sc(CC(F)(F)F)cc14)C3)N2 [Example 8, (1S,3S,4S)-3-{6-[2-(2,2,2-trifluoroethyl)-5-(trifluoromethyl)thieno[2,3-b]pyridin-4-yl]-2,6-diazaspiro[3.3]heptane-2-carbonyl}-2-azabicyclo[2.2.2]octan-5-one] | 1100 nM | 635 nM | 330 nM | – | 82.9% | 79.3% | – | – | –
O=C([C@H]1N[C@H]2CC[C@@H]1C[C@H]2F)N1CC2(C1)CN(c1c(C(F)(F)F)cnc3sc(CC(F)(F)F)cc13)C2 [Example 10, [(1S,3S,4R,6R)-6-fluoro-2-azabicyclo[2.2.2]octan-3-yl]{6-[2-(2,2,2-trifluoroethyl)-5-(trifluoromethyl)thieno[2,3-b]pyridin-4-yl]-2,6-diazaspiro[3.3]heptan-2-yl}methanone] | 2100 nM | 343 nM | 810 nM | – | 68.8% | 69.5% | – | – | –
N#Cc1cnc2sc(CC(F)(F)F)cc2c1N1CC2(CN(C(=O)[C@H]3N[C@H]4CC[C@@H]3C(=O)C4)C2)C1 [Example 25, 4-{6-[(1S,3S,4S)-5-oxo-2-azabicyclo[2.2.2]octane-3-carbonyl]-2,6-diazaspiro[3.3]heptan-2-yl}-2-(2,2,2-trifluoroethyl)thieno[2,3-b]pyridine-5-carbonitrile] | 2200 nM | 90.2 nM | 690 nM | – | – | – | – | – | –
O=C([C@H]1N[C@@H]2CC[C@H]1C2)N1CC2(C1)CN(c1c(C(F)F)cnc3sc(CC(F)(F)F)cc13)C2 [Example 27, [(1R,3S,4S)-2-azabicyclo[2.2.1]heptan-3-yl]{6-[5-(difluoromethyl)-2-(2,2,2-trifluoroethyl)thieno[2,3-b]pyridin-4-yl]-2,6-diazaspiro[3.3]heptan-2-yl}methanone] | 940 nM | 26 nM | 560 nM | potent | 48.9% | 53.5% | showed the mRNA transcription inhibition activity | good | –

The remaining compounds from weak to strong by IC50 (MOLM-13 cells), led by results:

IC50 (MOLM-13 cells) | IC50 [2] | IC50 (RS4; 11 cells) | Menin-MLL binding inhibition activity (in words) [2] | Structure (SMILES) | mrna remaining at 1 µM [1] | mrna remaining at 1 µM [3] | mRNA transcription inhibition activity (in words) [1] | cell proliferation inhibition activity (in words, good) (RS4; 11 cells) | cell proliferation inhibitory activity (in words, potent) (RS4; 11 cells)
810 nM | 134 nM | 620 nM | – | O=C([C@H]1N[C@H]2CC[C@@H]1C[C@@H]2OCc1ccccc1)N1CC2(C1)CN(c1c(C(F)(F)F)cnc3sc(CC(F)(F)F)cc13)C2 [Example 13, [(1S,3S,4R,6S)-6-(benzyloxy)-2-azabicyclo[2.2.2]octan-3-yl]{6-[2-(2,2,2-trifluoroethyl)-5-(trifluoromethyl)thieno[2,3-b]pyridin-4-yl]-2,6-diazaspiro[3.3]heptan-2-yl}methanone] | 57.3% | 63% | – | – | –
730 nM | 53.9 nM | 630 nM | – | C=CCO[C@H]1C[C@H]2CC[C@@H]1N[C@@H]2C(=O)N1CC2(C1)CN(c1c(C(F)(F)F)cnc3sc(CC(F)(F)F)cc13)C2 [Example 11, {(1S,3S,4R,6S)-6-[(prop-2-en-1-yl)oxy]-2-azabicyclo[2.2.2]octan-3-yl}{6-[2-(2,2,2-trifluoroethyl)-5-(trifluoromethyl)thieno[2,3-b]pyridin-4-yl]-2,6-diazaspiro[3.3]heptan-2-yl}methanone] | 60.7% | 64.5% | – | – | –
680 nM | 44.7 nM | 290 nM | potent | O=C([C@H]1NC2CCC1CC2)N1CC2(C1)CN(c1c(C(F)F)cnc3sc(CC(F)(F)F)cc13)C2 [Example 26, [(3S)-2-azabicyclo[2.2.2]octan-3-yl]{6-[5-(difluoromethyl)-2-(2,2,2-trifluoroethyl)thieno[2,3-b]pyridin-4-yl]-2,6-diazaspiro[3.3]heptan-2-yl}methanone] | 41.4% | 57.6% | showed the mRNA transcription inhibition activity | good | –
240 nM | 8.4 nM | 270 nM | potent | N#Cc1cnc2sc(CC(F)(F)F)cc2c1N1CC2(CN(C(=O)[C@H]3N[C@@H]4CC[C@H]3C4)C2)C1 [Example 21, 4-{6-[(1R,3S,4S)-2-azabicyclo[2.2.1]heptane-3-carbonyl]-2,6-diazaspiro[3.3]heptan-2-yl}-2-(2,2,2-trifluoroethyl)thieno[2,3-b]pyridine-5-carbonitrile] | 40.9% | 52.1% | showed the mRNA transcription inhibition activity | good | potent
220 nM | 11.4 nM | 270 nM | potent | N#Cc1cnc2sc(CC(F)(F)F)cc2c1N1CC2(CN(C(=O)[C@H]3NC4CCC3CC4)C2)C1 [Example 20, 4-{6-[(3S)-2-azabicyclo[2.2.2]octane-3-carbonyl]-2,6-diazaspiro[3.3]heptan-2-yl}-2-(2,2,2-trifluoroethyl)thieno[2,3-b]pyridine-5-carbonitrile] | 41.8% | 59.3% | showed the mRNA transcription inhibition activity | good | potent
